# Patent publication US4588715A, “Heptenoic acid derivatives” (Sandoz, Inc., priority 1984, dated 1986)
# pIC50: −log10 of the molar value. “And” between values parts separate entries of the source, which are not always exact repeats. Equal entries are not always repeated. Where two headings read alike, the source gives them in different places.
# Experiments:
# Cholesterol Biosynthesis [1] = test: Test C: In Vivo Cholesterol Biosynthesis Inhibition Tests; design: species or system male Wistar Royal Hart rats; details: for ED50: Rattus norvegicus
# Protocol: Test C: In Vivo Cholesterol Biosynthesis Inhibition Tests: In vivo studies utilize male Wistar Royal Hart rats weighing 150±20 g. which have been kept for 7-10 days on an altered light cycle (6:30 A.M.-6:30 P.M. dark) housed two per cage and fed powdered Purina Rat Chow and water ad libitum. Three hours before the diurnal maximum of cholesterol synthesis at mid-dark, the rats are administered the test substances dissolved or as a suspension in 0.5% carboxymethylcellulose in a volume of 1 ml./100 g. body weight. Controls receive vehicle alone. One hour after receiving the test substance, the rats are injected intraperitoneally with about 25 μCi/100 g. body weight of sodium [1-^14 C]acetate 1-3 mCi/mmol. Two hours after mid-dark, blood samples are obtained under sodium hexobarbitol anesthesia and the serum separated by centrifugation.
# Serum samples are saponified and neutralized, and the 3β-hydroxy sterols are precipitated with digitonin basically as described by Sperry et al., J. Biol. Chem. 187,97 (1950). The [^14 C]digitonides are then counted by liquid scintillation spectrometry. After correcting for efficiencies, the results are calculated in nCi (nanocuries) of sterol formed per 100 ml. of serum. Inhibition of sterol synthesis is calculated from the reduction in the nCi of sterols formed from test groups compared to controls.
# HMG-CoA reductase = molecular target: T1, HMG-CoA reductase (Rattus norvegicus, UniProt P51639); test: Test A. In Vitro Microsomal Assay of HMG-CoA Reductase Inhibition; format: biochemical; details: saponified products M=Na, unsaponified products tested in DMA
# T1 construct: the microsomes are the source of the HMG-CoA reductase enzyme; from tissue; host or cells: liver microsomes, male Sprague-Dawley rats
# T1 sequence (P51639 1-887): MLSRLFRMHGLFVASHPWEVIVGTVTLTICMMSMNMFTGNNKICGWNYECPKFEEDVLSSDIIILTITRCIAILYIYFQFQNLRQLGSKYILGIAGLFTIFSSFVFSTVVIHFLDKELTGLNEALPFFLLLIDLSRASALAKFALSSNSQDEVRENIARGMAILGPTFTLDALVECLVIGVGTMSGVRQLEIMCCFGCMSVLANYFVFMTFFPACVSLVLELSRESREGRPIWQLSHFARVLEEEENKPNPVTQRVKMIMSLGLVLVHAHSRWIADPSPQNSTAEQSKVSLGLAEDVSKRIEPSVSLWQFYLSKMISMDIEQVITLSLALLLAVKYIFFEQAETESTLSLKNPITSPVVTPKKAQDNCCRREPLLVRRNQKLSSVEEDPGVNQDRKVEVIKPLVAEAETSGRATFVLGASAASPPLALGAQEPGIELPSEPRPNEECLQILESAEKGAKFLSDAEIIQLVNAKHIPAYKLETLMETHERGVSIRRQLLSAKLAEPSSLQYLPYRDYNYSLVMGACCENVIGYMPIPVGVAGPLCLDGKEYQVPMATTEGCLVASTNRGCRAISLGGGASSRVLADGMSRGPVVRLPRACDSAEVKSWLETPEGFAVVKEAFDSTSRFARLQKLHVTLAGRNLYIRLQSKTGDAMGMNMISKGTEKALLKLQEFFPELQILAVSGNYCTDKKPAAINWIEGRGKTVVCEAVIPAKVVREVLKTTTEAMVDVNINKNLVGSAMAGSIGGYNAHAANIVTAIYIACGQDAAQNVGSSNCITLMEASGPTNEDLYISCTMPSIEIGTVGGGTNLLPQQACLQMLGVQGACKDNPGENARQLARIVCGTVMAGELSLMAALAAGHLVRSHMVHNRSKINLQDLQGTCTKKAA
# Protocol: Test A. In Vitro Microsomal Assay of HMG-CoA Reductase Inhibition
# 200 μl. aliquots (1.08-1.50 mg./ml.) of rat liver microsomal suspensions, freshly prepared from male Sprague-Dawley rats (150-225 g. body weight), in Buffer A with 10 mmol. dithiothreitol are incubated with 10 μl. test substance dissolved in dimethylacetamide and assayed for HMG-CoA reductase activity as described by Ackerman et al., J. Lipid Res. 18,408-413 (1977). In the assay the microsomes are the source of the HMG-CoA reductase enzyme which catalyzes the reduction of HMG-CoA to mevalonate. The assay employs a chloroform extraction to separate the product, [^14 C]mevalonolactone, formed by the HMG-CoA reductase reaction from the subsubstrate, [^14 C]HMG-CoA. [^3 H]mevalonolactone is added as an internal reference. Inhibition of HMG-CoA reductase is calculated from the decrease in specific activity [^14 C/^3 H]mevalonate) of test groups compared to controls.
# IC50 is the concentration of the test substance in the assay system
# Cholesterol Biosynthesis [2] = test: Test B. In Vitro Cell Culture Cholesterol Biosynthesis Screen (Fu5AH rat hepatoma cell line); format: cell-based; details: Fu5AH rat hepatoma cells, [14C]acetate, 3 hours; for inhibition at 10 µM: concentration 10 μM; for inhibition at 1 µM: concentration 1 μM
# Protocol: Test B. In Vitro Cell Culture Cholesterol Biosynthesis Screen
# The cell culture is prepared as follows: Stock monolayer cultures of the Fu5AH rat hepatoma cell line (originally obtained from G. Rothblat; see Rothblat, Lipids 9, 526-535 (1974) are routinely maintained in Eagle's Minimum Essential Medium (EMEM) supplemented with 10% fetal bovine serum (FBS) in 75 cm^2. tissue culture flasks. For these studies, when the cultures reach confluence, they are removed by mild enzymatic treatment with 0.25% trypsin in Hanks' balanced salt solution (without calcium and magnesium). After centrifugation of the cell suspension and aspiration of the enzymatic solution, the cell pellet is resuspended in an appropriate volume of media for seeding into 60 mm. tissue culture dishes. The cultures are incubated at 37° C. in an atmosphere of high humidity and 5% carbon dioxide. When the cultures are confluent (approximately 5 days), they are ready for use. The culture media is aspirated from the dishes and replaced with 3 ml. of EMEM supplemented with 5 mg./ml. of delipidized serum protein (DLSP) prepared by the method of Rothblat et al., In Vitro 12, 554-557 (1976). […] Enhanced 3-hydroxy-3-methylglutaryl Coenzyme A reductase (HMG-CoA reductase) activity is measurable in the cells in response to the lack of exogenous sterol. Following approximately 24 hours incubation at 37° C. in the DLSP supplemented media, the assay is initiated by the addition of 3μCi of [^14 C]acetate and the test substances solubilized in dimethylsulfoxide (DMSO) or distilled water. Solvent controls and compactin-treated controls are always prepared. Triplicate 60 mm. tissue culture dishes are run for each group. After 3 hours incubation at 37° C., the cultures are examined microscopically using an inverted phase contrast microscope. Notations are made of any morphological changes which may have occurred in the cultures. The media is aspirated and the cell layer is gently washed twice with 0.9% sodium chloride solution (saline). The cell layer is then harvested in 3 ml. of 0.9% saline by gentle scraping with a rubber policeman and transferred to a clean glass tube with Teflon lined cap. The dishes are rinsed with 3 ml. of 0.9 % saline and rescraped, and the cells are combined with the first harvest. The tubes are centrifuged at 1500 r.p.m. for 10 minutes in an IEC PR-J centrifuge, and the supernatant is aspirated.
# The cells are then extracted as follows: One ml. of 100% ethanol is added to the cell pellet followed by sonication for 10 seconds with a "LO" setting of 50 on a Bronwell Biosonik IV. One hundred μL. are taken for protein determination. One ml. of 15% potassium hydroxide (KOH) is added, and the samples are thoroughly vortexed. Saponification is accomplished by heating the ethanol-KOH treated samples at 60° C. for 60 minutes in a water bath. Following dilution of the samples with 2 ml. of distilled water, they are extracted three times with 7 ml. of petroleum ether. The petroleum ether extracts are then washed three times with 2 ml. of distilled water and finally taken to dryness under a stream of nitrogen.
# The obtained samples are then analyzed by thin layer chromatography (TLC) as follows: Residues from the petroleum ether extraction are taken up in a small volume of hexane and spotted on silica gel 60 TLC plates (E. Merck). Development of the plates is carried out in a 150 parts by volume hexane: 50 parts by volume diethyl ether: 5 parts by volume glacial acetic acid solvent system using a three phase development procedure. Visualization is accomplished in an iodine vapor chamber. The plates are divided into five sections such that each section contains the molecules having the following approximate Rf values: section 1-0-0.4, section 2-0.4-0.55, section 3-0.55-0.7, section 4-0.7-0.9 and section 5-0.9-1.0. Section 2 contains the non-saponifiable sterols. The five sections of the TLC plates are scraped into scintillation vials. […]
Compound,"pIC50 (HMG-CoA reductase; IC50, rat liver microsomes)",inhibition at 10 µM (Cholesterol Biosynthesis [2]),further results
CC[C@H](C)C(=O)O[C@H]1C[C@@H](C)C=C2C=C[C@H](C)[C@H](CC[C@@H]3C[C@@H](O)CC(=O)O3)[C@H]21 [Mevinolin],–,–,ED50 (Cholesterol Biosynthesis [1]): 0.41 mg/kg
Cc1cccc([Si](C)(C)c2ccccc2)c1/C=C/[C@@H](O)C[C@@H](O)CC(=O)O (relative stereo) [Example 6g (Ia^s)],5.37,–,–
"Cc1ccc(C)c([Si](C)(C)c2ccccc2)c1/C=C/[C@@H]1C[C@@H](O)CC(=O)O1 (relative stereo) [Example 10 (Ib""'), 6-{2-[3,6-dimethyl-2-(dimethylphenylsilyl)phenyl]ethenyl}4-hydroxy-tetrahydro-2H-pyran-2-one (trans,trans)]",4.61,63%,–
"C[Si](c1ccccc1)(c1ccccc1)c1ccccc1/C=C/[C@@H]1C[C@@H](O)CC(=O)O1 (relative stereo) [Example 3 (Ia""'), 4-Hydroxy-6{2-[2-(methyldiphenylsilyl)phenyl]ethenyl}-2H-tetrahydropyran-2-one(trans,trans)]",–,74%,–
CCOC(=O)C[C@H](O)C[C@H](O)/C=C/c1c(C)cc(OC)cc1[Si](C)(C)c1ccccc1 (relative stereo) [Example 5e (Ia')],–,28%,–
"CCOC(=O)C[C@H](O)C[C@H](O)/C=C/c1c(C)ccc(C)c1[Si](C)(C)c1ccccc1 (relative stereo) [Example 9 (Ib'), Ethyl 7-[3,6-dimethyl-(2-dimethylphenylsilyl)-phenyl]-3,5-dihydroxy hept-6-enoate, (erythro,trans)]",4.55,–,inhibition at 1 µM (Cholesterol Biosynthesis [2]): 19%
"Cc1cc(Cl)cc([Si](C)(C)c2ccccc2)c1/C=C/[C@@H]1C[C@@H](O)CC(=O)O1 (relative stereo) [Example 6b (Ia""')]",4.79,–,–
"Cc1cc(Cl)cc([Si](C)(c2ccccc2)c2ccccc2)c1/C=C/[C@@H]1C[C@@H](O)CC(=O)O1 (relative stereo) [Example 8a (Ia""')]",–,33%,–
Cc1ccc(C)c([Si](C)(C)c2ccccc2)c1/C=C/[C@@H](O)C[C@@H](O)CC(=O)O (relative stereo) [Example 10 (Ib^s)],5.05,–,–
Cc1cccc([Si](C)(c2ccccc2)c2ccccc2)c1/C=C/[C@@H](O)C[C@@H](O)CC(=O)O (relative stereo) [Example 8b (Ia^s)],4.28,–,–
"C[Si](C)(c1ccccc1)c1ccccc1/C=C/[C@@H]1C[C@@H](O)CC(=O)O1 (relative stereo) [Example 4 (Ia""'), 4-Hydroxy-6{2-[2-(dimethylphenylsilyl)phenyl]ethenyl}-2H-tetrahydropyran-2-one]",–,56%,–
CCOC(=O)C[C@H](O)C[C@H](O)/C=C/c1c(C)cc(C)cc1[Si](C)(C)c1ccccc1 (relative stereo) [Example 5a (Ia')],4.83,–,inhibition at 1 µM (Cholesterol Biosynthesis [2]): 47%
Cc1cc(C)c(/C=C/[C@@H](O)C[C@@H](O)CC(=O)O)c([Si](C)(C)c2ccccc2)c1 (relative stereo) [Example 6a (Ia^s)],5.16,–,–
"Cc1cccc([Si](C)(C)c2ccccc2)c1/C=C/[C@@H]1C[C@@H](O)CC(=O)O1 (relative stereo) [Example 6g (Ia""')]",4.57,65%,"% Inhibition (Cholesterol Biosynthesis [1]; dose 48 mg/kg, serum sterol synthesis, rats): 57%"
"CC[C@H](C)C(=O)O[C@H]1CCC=C2C=C[C@H](C)[C@H](CC[C@@H]3C[C@@H](O)CC(=O)O3)[C@H]21 [compactin, reference compound]",–,–,"pIC50 (HMG-CoA reductase; rat liver microsomes, read-out: IC50): 6.10; inhibition at 0.08 µM (Cholesterol Biosynthesis [2]; concentration 0.08 μM): 50%; ED50 (Cholesterol Biosynthesis [1]; standard, serum sterol synthesis, rats, read-out: ED50): 3.5 mg/kg"
"Cc1cc(C)c(/C=C/[C@@H]2C[C@@H](O)CC(=O)O2)c([Si](C)(C)c2ccccc2)c1 (relative stereo) [Example 6a (Ia""')]",–,73%,–
Cc1cc(Cl)cc([Si](C)(C)c2ccccc2)c1/C=C/[C@@H](O)C[C@@H](O)CC(=O)O (relative stereo) [Example 6b (Ia^s)],4.77 and 4.85,–,–
CCOC(=O)C[C@H](O)C[C@H](O)/C=C/c1c(C)cc(Cl)cc1[Si](C)(c1ccccc1)c1ccccc1 (relative stereo) [Example 7a (Ia')],–,17%,–
